Assay results as given in US20250237649A1 (priority 2021, published 2025).
Read-outs that look alike come from different tables or passages of the source. Residues, ends and D or L forms follow the SMILES beside them. *: point of attachment. Dabcyl = CN(C)c1ccc(N=Nc2ccc(C(=O)*)cc2)cc1; EDANS = O=S(=O)(O)c1cccc2c(NCCN*)cccc12; pNA = O=[N+]([O-])c1ccc(N*)cc1; Cbz = O=C(OCc1ccccc1)*

How the values were obtained:
Hip1 [1] = target: T1, Hip1 (Mycobacterium tuberculosis, UniProt P9WHR3); assay: Km determination of Hip1 substrates (Michaelis-Menten); assay type: biochemical
T1 sequence (P9WHR3 31-520): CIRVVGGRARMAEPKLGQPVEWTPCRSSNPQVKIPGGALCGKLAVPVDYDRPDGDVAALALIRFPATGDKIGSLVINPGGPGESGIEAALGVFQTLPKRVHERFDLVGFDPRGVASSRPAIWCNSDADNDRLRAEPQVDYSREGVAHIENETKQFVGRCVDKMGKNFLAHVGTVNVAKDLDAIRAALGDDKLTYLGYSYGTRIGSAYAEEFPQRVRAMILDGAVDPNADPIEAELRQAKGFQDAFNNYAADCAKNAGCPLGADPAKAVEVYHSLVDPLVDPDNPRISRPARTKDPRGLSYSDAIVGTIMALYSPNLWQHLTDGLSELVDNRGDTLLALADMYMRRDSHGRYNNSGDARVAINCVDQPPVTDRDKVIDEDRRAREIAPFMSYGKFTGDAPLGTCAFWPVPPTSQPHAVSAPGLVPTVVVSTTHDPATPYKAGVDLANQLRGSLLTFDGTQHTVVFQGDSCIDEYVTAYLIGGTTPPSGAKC

Hip1 [2] = target: T1, Hip1; assay: Inhibition of Hip1 (Ki determination); assay type: biochemical
[3] = read-out: Km (fluorescent substrate)

Row | Structure (SMILES) | Km (Hip1 [1]; [3]) [µM] | other results
1 | CC(C)C[C@H](NC(=O)[C@H](CCCCN)NC(=O)[C@H](Cc1ccccc1)NC(=O)OCc1ccccc1)C(=O)Nc1ccc([N+](=O)[O-])cc1 [Cbz-Phe-Lys-Leu-pNa] (Cbz-Phe-Lys-Leu-pNA) |  | Km (Hip1 [1]; three independent determinations averaged, read-out: Km (chromogenic substrate)): 0.421 µM
2 | COC(=O)C(=O)[C@H](C[C@@H]1CCNC1=O)NC(=O)[C@H](CCCCN)NC(=O)[C@H](Cc1ccccc1)NC(=O)OCc1ccccc1 [Inhibitor Compound 2, Cbz-Phe-Lys-Glnlac-CO—CO2Me] |  | Ki (Hip1 [2]): 0.117 ± 0.015 nM
3 | CC(C)C[C@H](NC(=O)CNC(=O)[C@H](CCCNC(=N)N)NC(=O)[C@H](CCCNC(=N)N)NC(=O)[C@H](C)NC(=O)[C@H](CCC(=O)O)NC(=O)c1ccc(N=Nc2ccc(N(C)C)cc2)cc1)C(=O)N[C@@H](CCC(=O)NCCNc1cccc2c(S(=O)(=O)O)cccc12)C(=O)N[C@@H](CCCNC(=N)N)C(=O)O [UFNG1] (Dabcyl-EARRGLE(EDANS)R-OH) | 17.5 | 
4 | CC(C)C[C@H](NC(=O)CNC(=O)[C@H](CCC(N)=O)NC(=O)[C@H](CCCCN)NC(=O)[C@H](Cc1ccccc1)NC(=O)[C@H](CCC(=O)O)NC(=O)c1ccc(N=Nc2ccc(N(C)C)cc2)cc1)C(=O)N[C@@H](CCC(=O)NCCNc1cccc2c(S(=O)(=O)O)cccc12)C(=O)N[C@@H](CCCNC(=N)N)C(=O)O [UFNG2, Dabcyl-Glu-Phe-Lys-Gln-Gly-Leu-Glu-(EDANS)-Arg] (Dabcyl-EFKQGLE(EDANS)R-OH) | 37.6 | 
